Test results taken from patent publication US20080145858A1, “DETECTION AND IDENTIFICATION OF TOXICANTS BY MEASUREMENT OF GENE […]” (priority 2003, published 2008).
Marks after values point to notes of the source that are not given here.

Test system: Xenopus laevis cleavage stage embryos (stage 8)
Assay: Xenopus cDNA microarray, differential gene expression after PMA treatment during cleavage stage (Group I)
Assay type: in vivo
Details: for Normalization by Landmarks (1.6) / Normalization by all Data Points (1.3) / Ratio of Medians (Cy5/Cy3) First Spot / Ratio of Medians (Cy5/Cy3) Mean / Ratio of Medians (Cy5/Cy3) Second Spot / Normalized by Landmarks (1.59) / Normalized by all Data Points (1.28) / (CY3/CY5) by Landmarks (1.6) / (CY3/CY5) by all Data Points (1.3): PMA 100 ng/ml; for % increase of mRNA expression by Microarray analysis (NF by all data point): Stage 8
Source text: Specifically, the method and screen of the present invention function as follows. EST clones produced from Xenopus laevis unfertilized eggs were used in the present study with ˜1,200 EST clones from a 18,500 EST clone set selected for production of a Xenopus cDNA microarray. The Xenopus microarray was used to measure the effect of chemical treatment on Xenopus embryo gene regulation. The chemical treatment was a phorbol ester, PMA. Xenopus eggs were obtained from females induced for ovulation and fertilized in vitro. Control Xenopus laevis embryos were allowed to develop to stage 8 blastula or stage 15 neurula. Treated embryos were exposed to PMA during cleavage stage or during neurulation with end points of blastula (stage 8) or neurula (stage 15). Specifically, PMA 100 ng/ml was added to the incubation media during cleavage stages for evaluation in stage 8 embryo or PMA was added during neural induction for evaluation in stage 15 embryos. RNA extracted from the embryos was used to generate fluorescent cDNA probes for Xenopus microarray analyses to measure differential gene expression with and without the phorbol ester treatment. Analysis was performed using paired RNA samples to compare PMA-treated and untreated embryos: Group I measured the effects of PMA-treatment during the cleavage stage in stage 8 embryos and Group II measured the effects of PMA-treatment during neurulation in stage 15 embryos. Group III measured the change in gene expression between stage 8 and stage 15 embryos.
cDNA fragments were obtained by PCR replication of Xenopus laevis unfertilized egg cDNA inserts, purified, quantitated and loaded onto glass chips by robotics. In addition to the selected ˜1,200 genes, 64 lambda Q gene, an internal control cDNA (Genomic Solutions, Inc., Ann Arbor, Mich.) was loaded on the chip. The insert DNA from ˜1,200 clones were PCR amplified using forward and reverse primers (GF.200 primers, Research Genetics, Huntsville, Ala.). A second PCR was carried out using 1 μl of the primary PCR (20 μl) for template. Excess dNTPs, polymerase and other PCR artifacts were removed from the secondary PCR reactions using Millipore Multiscreen plates (Millipore Corporation, Bedford, Mass.) using the standard protocol. The purity of the PCR products was assessed by electrophoresis and documented using an Alphalmager 1000 Digital Imaging System (Alpha Innotech Corporation, San Leandro, Calif.). The DNA obtained by PCR was quantitated using PicoGreen (Molecular Probes, Eugene, Oreg.). The DNA was denatured and arrayed onto amino-silane coated microscope slides (CMT-GAPS coated slides, Corning, Corning, N.Y.) using a Flexys robotic workstation (Genomic Solutions Inc.). The ˜1,200 PCR products were arrayed in duplicate on each slide and cross-linked. Each gene chip contained duplicate cDNA samples.
Total RNA was prepared from embryos treated in three separate dishes per treatment group that were pooled. Total RNA was isolated from the frog embryos (1,200 embryos for each probe production) using TRIzol extraction (Gibco BRL, Grand Island, N.Y.) and Qiagen RNeasy kits (Qiagen, Valencia, Calif.). The ethanol precipitated RNA was resuspended in RNase-free water, quantitated with RiboGreen (Molecular Probes, Eugene, Oreg.). Total RNA was further purified using oligoTex mRNA maxi kit (Qiagen Co.) with the bound mRNA eluted with minimum volume of elution buffer and precipitated with ethanol. The recovery rate of mRNA by the ethanol precipitation method was ˜70%. Cy3- or Cy5-tagged probes were produced from an mRNA mixture (20 μl) of Xenopus mRNA (5 μg) and lambda Q gene mRNA (3.5 ng) reverse-transcribed with oligo(dT)18-22 primer and dNTPs and the reverse-transcribed cDNA was cross-linked with Cy3 or Cy5 as described in Clontech Atlas™ Glass Fluorescent Labeling kit manual (www.clontech.com). After hydrolysis of the RNA and purification of the probe (Centricon 50, Millipore, Bedford, Mass.), the cDNA in TE buffer was quantitated by absorbance at 260 nm. […]

[1] = cleavage and neurulation stage embryos
[2] = ras-related protein gene, stage 8

SMILES: CCCCCCCCCCCCCC(=O)O[C@@H]1[C@@H](C)[C@@]2(O)[C@@H](C=C(CO)C[C@]3(O)C(=O)C(C)=C[C@@H]23)[C@@H]2C(C)(C)[C@]12OC(C)=O [PMA, phorbol 12-myristate 12-acetate]
- Normalization by Landmarks (1.6) (PBX0143D10 mRNA, stage 8): 0.64
- Normalization by all Data Points (1.3) (PBX0143D10 mRNA, stage 8): 0.40
- Ratio of Medians (Cy5/Cy3) First Spot (PBX0143D10 mRNA, stage 8): 0.22
- Ratio of Medians (Cy5/Cy3) Mean (PBX0143D10 mRNA, stage 8): 0.31 ± 0.11
- Ratio of Medians (Cy5/Cy3) Second Spot (PBX0143D10 mRNA, stage 8): 0.40
- Normalized by Landmarks (1.59) (PBX0143E06 mRNA, stage 8): 3.85
- Normalized by all Data Points (1.28) (PBX0143E06 mRNA, stage 8): 3.10
- Ratio of Medians (Cy5/Cy3) First Spot (PBX0143E06 mRNA, stage 8): 2.92
- Ratio of Medians (Cy5/Cy3) Mean (PBX0143E06 mRNA, stage 8): 2.42 ± 0.50
- Ratio of Medians (Cy5/Cy3) Second Spot (PBX0143E06 mRNA, stage 8): 1.91
- (CY3/CY5) by Landmarks (1.6) (PBX0144A09 mRNA, stage 8): 6.45
- (CY3/CY5) by all Data Points (1.3) (PBX0144A09 mRNA, stage 8): 10.33
- Normalization by Landmarks (1.6) (PBX0144A09 mRNA, stage 8): 0.15
- Normalization by all Data Points (1.3) (PBX0144A09 mRNA, stage 8): 0.10
- Ratio of Medians (Cy5/Cy3) First Spot (PBX0144A09 mRNA, stage 8): 0.06
- Ratio of Medians (Cy5/Cy3) Mean (PBX0144A09 mRNA, stage 8): 0.07 ± 0.02 ^a
- Ratio of Medians (Cy5/Cy3) Second Spot (PBX0144A09 mRNA, stage 8): 0.09
- Normalized by Landmarks (1.59) (PBX0144C12 mRNA, stage 8): 5.55
- Normalized by all Data Points (1.28) (PBX0144C12 mRNA, stage 8): 4.47
- Ratio of Medians (Cy5/Cy3) First Spot (PBX0144C12 mRNA, stage 8): 4.75
- Ratio of Medians (Cy5/Cy3) Mean (PBX0144C12 mRNA, stage 8): 3.49 ± 1.26
- Ratio of Medians (Cy5/Cy3) Second Spot (PBX0144C12 mRNA, stage 8): 2.23
- Normalized by Landmarks (1.59) (PBX0144E04 mRNA, stage 8): 5.45
- Normalized by all Data Points (1.28) (PBX0144E04 mRNA, stage 8): 4.38
- Ratio of Medians (Cy5/Cy3) First Spot (PBX0144E04 mRNA, stage 8): 3.67
- Ratio of Medians (Cy5/Cy3) Mean (PBX0144E04 mRNA, stage 8): 3.42 ± 0.25
- Ratio of Medians (Cy5/Cy3) Second Spot (PBX0144E04 mRNA, stage 8): 3.17
- Normalized by Landmarks (1.59) (PBX0145A06 mRNA, stage 8): 4.55
- Normalized by all Data Points (1.28) (PBX0145A06 mRNA, stage 8): 3.66
- Ratio of Medians (Cy5/Cy3) First Spot (PBX0145A06 mRNA, stage 8): 2.27
- Ratio of Medians (Cy5/Cy3) Mean (PBX0145A06 mRNA, stage 8): 2.86 ± 0.59
- Ratio of Medians (Cy5/Cy3) Second Spot (PBX0145A06 mRNA, stage 8): 3.44
- (CY3/CY5) by Landmarks (1.6) (PBX0145A10 mRNA, stage 8): 1.93
- (CY3/CY5) by all Data Points (1.3) (PBX0145A10 mRNA, stage 8): 3.10
- Normalization by Landmarks (1.6) (PBX0145A10 mRNA, stage 8): 0.52
- Normalization by all Data Points (1.3) (PBX0145A10 mRNA, stage 8): 0.32
- Ratio of Medians (Cy5/Cy3) First Spot (PBX0145A10 mRNA, stage 8): 0.28
- Ratio of Medians (Cy5/Cy3) Mean (PBX0145A10 mRNA, stage 8): 0.25 ± 0.03
- Ratio of Medians (Cy5/Cy3) Second Spot (PBX0145A10 mRNA, stage 8): 0.22
- (CY3/CY5) by Landmarks (1.6) (PBX0145E05 mRNA, stage 8): 5.43
- (CY3/CY5) by all Data Points (1.3) (PBX0145E05 mRNA, stage 8): 8.69
- Normalization by Landmarks (1.6) (PBX0145E05 mRNA, stage 8): 0.18
- Normalization by all Data Points (1.3) (PBX0145E05 mRNA, stage 8): 0.12
- Ratio of Medians (Cy5/Cy3) First Spot (PBX0145E05 mRNA, stage 8): 0.11
- Ratio of Medians (Cy5/Cy3) Mean (PBX0145E05 mRNA, stage 8): 0.09 ± 0.02
- Ratio of Medians (Cy5/Cy3) Second Spot (PBX0145E05 mRNA, stage 8): 0.07
- (CY3/CY5) by Landmarks (1.6) (PBX0145E09 mRNA, stage 8): 2.76
- (CY3/CY5) by all Data Points (1.3) (PBX0145E09 mRNA, stage 8): 4.42
- Normalization by Landmarks (1.6) (PBX0145E09 mRNA, stage 8): 0.36
- Normalization by all Data Points (1.3) (PBX0145E09 mRNA, stage 8): 0.23
- Ratio of Medians (Cy5/Cy3) First Spot (PBX0145E09 mRNA, stage 8): 0.16
- Ratio of Medians (Cy5/Cy3) Mean (PBX0145E09 mRNA, stage 8): 0.17 ± 0.02
- Ratio of Medians (Cy5/Cy3) Second Spot (PBX0145E09 mRNA, stage 8): 0.19
- (CY3/CY5) by Landmarks (1.6) (PBX0145E10 mRNA, stage 8): 2.85
- (CY3/CY5) by all Data Points (1.3) (PBX0145E10 mRNA, stage 8): 4.57
- Normalization by Landmarks (1.6) (PBX0145E10 mRNA, stage 8): 0.35
- Normalization by all Data Points (1.3) (PBX0145E10 mRNA, stage 8): 0.22
- Ratio of Medians (Cy5/Cy3) First Spot (PBX0145E10 mRNA, stage 8): 0.21
- Ratio of Medians (Cy5/Cy3) Mean (PBX0145E10 mRNA, stage 8): 0.17 ± 0.05
- Ratio of Medians (Cy5/Cy3) Second Spot (PBX0145E10 mRNA, stage 8): 0.12
- Normalized by Landmarks (1.59) (PBX0145H10 mRNA, stage 8): 3.78
- Normalized by all Data Points (1.28) (PBX0145H10 mRNA, stage 8): 3.05
- Ratio of Medians (Cy5/Cy3) First Spot (PBX0145H10 mRNA, stage 8): 2.90
- Ratio of Medians (Cy5/Cy3) Mean (PBX0145H10 mRNA, stage 8): 2.38 ± 0.52
- Ratio of Medians (Cy5/Cy3) Second Spot (PBX0145H10 mRNA, stage 8): 1.86
- expression of gene of EST PBX0144A09 [1]: highly down-regulated
- expression of genes of ESTs PBX0134G08, PBX0144C12, PBX0136C09, PBX0134H03, PBX0136F03, PBX0143E06 and PBX0137G06 [1]: highly up-regulated
- up-regulation of the 25 highly up-regulated Xenopus genes (cleavage stage, treated vs untreated embryos, Table 1, Panel A): 3-8 fold
- % increase of mRNA expression by Microarray analysis (NF by all data point) (gene PBX0135A08): 270%^a % of control
- % increase of mRNA expression by Microarray analysis (NF by all data point) (gene PBX013409): 380% of control
- RAB-1A expression ratio [2]: 2.10
- RAB-9 expression [2]: down-regulated
- RAP-1B expression [2]: down-regulated
- Phosphatase 2A regulatory subunit expression (PBX0140D01) (stage 8): 3 fold
